Here are results for two compounds from article PMC3673990, “Physicochemical Characterization of a Thermostable Alcohol Dehydrogenase from Pyrobaculum aerophilum” (PLoS ONE, 2013).

For experiment [1], the target named is T1, PyAeADHII (Pyrobaculum aerophilum, UniProt Q8ZUP0).
T1 construct: gene PAE2687; structural zinc only (Cys-91, Cys-94, Cys-97, Cys-105); Asn-39, Ser-61, Ile-147, Arg-88 in active site
The experiment is described as follows: spectrophotometric NADPH oxidation at […] nm. It is filed as biochemical. As to conditions: 0.3 mM NADPH, 50 mM sodium phosphate pH 7.5, 37 °C; reduction to alpha-tetralol.

Experiment [2] concerns the target T1, PyAeADHII. The experiment in a line: X-ray co-crystal structure, […] Å. As to conditions: modelled as NADPH, NADP+ not excluded; pH 7.5. It is filed as binding.

T1 sequence (Q8ZUP0 entry or part of it): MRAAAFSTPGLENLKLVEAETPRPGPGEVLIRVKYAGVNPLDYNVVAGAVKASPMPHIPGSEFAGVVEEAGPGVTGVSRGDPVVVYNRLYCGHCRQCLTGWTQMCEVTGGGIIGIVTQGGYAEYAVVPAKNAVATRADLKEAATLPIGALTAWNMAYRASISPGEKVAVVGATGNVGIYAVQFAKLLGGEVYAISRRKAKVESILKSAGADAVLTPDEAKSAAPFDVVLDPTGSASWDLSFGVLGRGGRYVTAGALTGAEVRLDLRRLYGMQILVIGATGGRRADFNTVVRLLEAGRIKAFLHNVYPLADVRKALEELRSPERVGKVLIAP

In the case of `O=C1CCCc2ccccc21` [α-tetralone], on PyAeADHII [1], the “spectrophotometric NADPH oxidation at 340 nm” value is listed as “The standard assay for the reduction reaction of α-tetralone”.
As for `NC(=O)C1=CN([C@@H]2O[C@H](COP(=O)(O)OP(=O)(O)OC[C@H]3O[C@@H](n4cnc5c(N)ncnc54)[C@H](OP(=O)(O)O)[C@@H]3O)[C@@H](O)[C@H]2O)C=CC1` [NADPH], the “X-ray co-crystal structure, 2.35 Å” value on PyAeADHII [2] is listed as “we determined the co-crystal structure of PyAeADHII monomer bound to NADPH”.
